Key:
[1] = system: ER+ MCF-7, ZR75–1, and T47D breast cancer cells; set-up: method as in PMID 37520743; settings: previously identified ref 17; cited from earlier work
AHR-Hsp90-XAP2 = target: T1, AHR-Hsp90-XAP2 (Homo sapiens, UniProt P35869); assay: Thermal stability measurements (nano-DSF); format: binding; settings: 2.5 μM protein, 12.5 μM compound
T1 construct: made in house
Experimental: Thermal denaturation experiments of AHR complexes in the presence of compounds were performed using a Tycho NT.6 instrument (NanoTemper Technologies). Protein samples were prepared as previously described[67] and subsequently diluted in the buffer containing 20 mM Bis-Tris–HCl pH 7.0, 50 mM NaCl, 10 mM KCl, 10 mM MgCl2, 20 mM Na2MoO4 and 2 mM β-mercaptoethanol to a final protein concentration of 2.5 μM. Compound stock solutions were prepared at 20 mM in DMSO and added to the protein samples to yield a final concentration of 12.5 μM. For control measurements, DMSO was added to a final concentration of 5% (v/v). Following ligand or DMSO addition, the samples were gently mixed and incubated at room temperature for 10 min to allow equilibration. Thermal denaturation profiles were acquired over a temperature range of 35°C–95°C, with a heating rate of 1 °C per min. Fluorescence was monitored at emission wavelengths of 330 nm and 350 nm, and the data were analyzed as the first derivative of the fluorescence ratio (F330/F350) as a function of temperature. All experiments were performed in triplicate, and data were analyzed using the Tycho NT.6 software (NanoTemper Technologies) according to the manufacturer’s recommendations.

MCF-7 luc = assay: Clonogenic assay (clonal expansion), MCF-7 cells expressing wild-type ER; format: cell-based; settings: Homo sapiens, MCF7, 336 h
Experimental: (§1) Cells were seeded at a density of 1–2×10^3 cells/well in a 6-well plate and treated with increasing concentrations of the X compounds for 14–21 days. Medium and compounds were renewed every 7 days. The experiments were terminated by fixing the cells with methanol and the colonies formed were visualized after staining with 0.5% crystal violet (w/v) in 20% methanol (v/v). Plates were photographed and the area covered by the colonies was calculated using the ColonyArea Plugin for Fiji (RRID:SCR_003070).[20]

MCF-7 cells = assay: Clonogenic assay in MCF-7 cells with AHR antagonist CH223191; format: cell-based, human; settings: MCF-7, 10 nM compound, 1 μM CH223191, 14 days
Experimental: as §1

hERα = target: T2, hERα (Homo sapiens, UniProt P03372); assay: ER/ERE luciferase reporter assay in HELN hERα cells; format: cell-based; settings: 10 nM–10 μM compound, with E2, 24 h
T2 construct: expressed in transfected cells; host or cells: HeLa (HELN hERα)
T2 sequence (P03372 1-595): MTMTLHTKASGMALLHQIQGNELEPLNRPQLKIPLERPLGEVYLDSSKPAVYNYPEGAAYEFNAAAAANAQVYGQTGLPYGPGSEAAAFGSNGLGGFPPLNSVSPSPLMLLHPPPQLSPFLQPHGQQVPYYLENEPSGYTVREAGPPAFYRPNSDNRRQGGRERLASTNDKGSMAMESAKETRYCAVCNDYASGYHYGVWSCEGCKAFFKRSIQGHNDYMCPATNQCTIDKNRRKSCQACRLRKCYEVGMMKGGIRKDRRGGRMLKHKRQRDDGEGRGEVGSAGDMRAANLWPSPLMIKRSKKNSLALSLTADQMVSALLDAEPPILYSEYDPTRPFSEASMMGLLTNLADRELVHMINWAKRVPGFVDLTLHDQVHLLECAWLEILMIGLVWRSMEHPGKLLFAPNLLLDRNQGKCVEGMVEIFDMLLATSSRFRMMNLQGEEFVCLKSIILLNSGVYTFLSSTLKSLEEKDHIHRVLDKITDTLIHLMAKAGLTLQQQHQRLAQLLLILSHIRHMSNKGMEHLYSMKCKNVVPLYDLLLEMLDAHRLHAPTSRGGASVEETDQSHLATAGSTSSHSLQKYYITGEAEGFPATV
Description: To characterize the chemical induced AHR activity, we used the already established HAHLH reporter cell lines obtained by stably expression of HeLa cells with the dioxin-responsive gene XRE(TnGCGTG)3-tata-luciferase-Luc-hygromycin plasmid.[29] The reporter HELN hERα cell line was obtained by transfecting human HeLa cells with the ERE-responsive gene ERE-βGlobin-luciferase-Luc-neomycin and the pSG5-hERα-puromycin plasmids as previously described.[59] To determine the action of the chemical on AHR and hERα activity, cells were seeded at a density of 50,000 cells per well in 96-well white opaque tissue culture plates (Greiner CellStar) in 150 μL of Dulbecco’s Modified Eagle Medium: Nutrient Mixture F-12 (DMEM/F- 12) without phenol red and 1 g/L glucose and supplemented with 5% stripped fetal bovine serum, 100 units/mL of penicillin, 100 μg/mL of streptomycin (test medium). Twenty-four hours later, chemicals to be tested were added at 4x concentration in culture medium, and cells were incubated at 37 °C for 8 h (HAhLH cells) or 24 h (HELN hERα cells). At the end of the incubation period, culture medium was replaced with test medium containing 0.3 mM luciferin and luciferase activity was measured for 2 s in intact living cells using a MicroBeta Wallac luminometer (PerkinElmer). Tests were performed in quadruplicate at 4x concentration in the same medium in at least 4 independent experiments. Results were expressed as % of the maximal luciferase activity. […] Effective concentration (ECs) for a given compound, EC50 is defined as the concentration inducing 50% of its maximal effect. The EC50 values were calculated including the adjustment for the basal activity of the cell line.

ERα in MCF-7 cells = assay: Immunoblot of ERα in MCF-7 cells; format: cell-based, human; settings: MCF-7, 48 h, increasing concentrations up to 1 μM
Experimental: To determine the relative expression of proteins by Western blotting, cells were first washed with ice-cold phosphate buffered saline (PBS). Subsequently, they were lysed in ice-cold NP40 lysis buffer (1%NP-40, 50 mM Tris-HCl, pH 8.0, 150 mM NaCl, 5 mM Ethylenediaminetetraacetic acid [EDTA], 1 mM PMSF) on ice. DNA was degraded by sonification (five pulses at 50 amplitudes). Protein concentration was determined, and equal amounts of protein were separated on a 9% SDS-PAGE gel. The proteins were transferred onto nitrocellulose membrane by a standard Western blotting protocol and the membranes were incubated with the following antibodies: ERα (Santa Cruz Biotechnology, sc-8002, RRID: AB_627558) and PCNA (Santa Cruz Biotechnology, sc-56, RRID: AB_628110), followed by incubation with HRP labeled Goat anti-mouse Immunoglobulins (DAKO, P0447, RRID: AB_2617137).

ERα full-length = target: T3, ERα full-length (Homo sapiens, UniProt P03372); assay: PolarScreen ERα Competitor Assay (fluorescence polarization); format: binding
T3 construct: 34 nM ERα full-length and 1.4 nM Fluormone EL Red were incubated; purchased ThermoFisher A15884
T3 sequence (P03372 1-595): T2 sequence (P03372 1-595)
Experimental: The PolarScreen Estrogen Receptor-Alpha Competitor Assay, Red (ThermoFisher, A15884) was used to determine if the X compounds bind to ERα. The assay was performed according to the manufacturer’s protocol.

[2] = Figure 1B, MCF-7 luc, absence of E2, 14 days
[3] = Figure 1C, MCF-7 luc + 10 nM E2, 14 days

T1 sequence (P35869 11-437 limits assumed): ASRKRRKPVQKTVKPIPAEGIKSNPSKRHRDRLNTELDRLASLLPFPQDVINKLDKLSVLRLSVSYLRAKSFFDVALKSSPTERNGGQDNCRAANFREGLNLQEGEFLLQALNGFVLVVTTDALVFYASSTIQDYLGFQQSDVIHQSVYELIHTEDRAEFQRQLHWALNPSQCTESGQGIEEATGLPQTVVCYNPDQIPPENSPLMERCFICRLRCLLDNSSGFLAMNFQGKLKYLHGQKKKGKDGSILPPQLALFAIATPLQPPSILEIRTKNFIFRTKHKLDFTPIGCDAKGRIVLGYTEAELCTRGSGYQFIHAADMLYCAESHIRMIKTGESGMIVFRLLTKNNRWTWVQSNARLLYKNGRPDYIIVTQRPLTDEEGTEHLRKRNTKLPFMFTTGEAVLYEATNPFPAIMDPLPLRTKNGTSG
T1 sequence (P08238 whole entry partner): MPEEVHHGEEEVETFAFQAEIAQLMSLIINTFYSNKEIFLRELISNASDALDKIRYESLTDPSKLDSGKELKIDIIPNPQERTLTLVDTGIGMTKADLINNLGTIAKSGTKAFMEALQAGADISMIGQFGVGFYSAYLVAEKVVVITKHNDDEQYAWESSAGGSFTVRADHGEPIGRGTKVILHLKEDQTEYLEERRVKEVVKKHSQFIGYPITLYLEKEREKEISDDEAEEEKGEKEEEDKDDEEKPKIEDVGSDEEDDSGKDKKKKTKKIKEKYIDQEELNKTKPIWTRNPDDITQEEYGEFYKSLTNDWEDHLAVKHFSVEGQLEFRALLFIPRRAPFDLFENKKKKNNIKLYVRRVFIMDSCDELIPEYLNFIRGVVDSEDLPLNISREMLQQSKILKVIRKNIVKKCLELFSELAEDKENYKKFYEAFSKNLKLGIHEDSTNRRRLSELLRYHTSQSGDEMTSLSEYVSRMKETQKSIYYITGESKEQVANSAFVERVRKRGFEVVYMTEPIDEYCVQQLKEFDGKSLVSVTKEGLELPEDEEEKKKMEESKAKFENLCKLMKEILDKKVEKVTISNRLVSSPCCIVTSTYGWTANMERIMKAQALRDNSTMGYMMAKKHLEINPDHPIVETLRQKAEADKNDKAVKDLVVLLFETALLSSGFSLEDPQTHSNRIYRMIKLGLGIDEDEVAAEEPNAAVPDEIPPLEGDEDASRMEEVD
T1 sequence (O00170 whole entry partner): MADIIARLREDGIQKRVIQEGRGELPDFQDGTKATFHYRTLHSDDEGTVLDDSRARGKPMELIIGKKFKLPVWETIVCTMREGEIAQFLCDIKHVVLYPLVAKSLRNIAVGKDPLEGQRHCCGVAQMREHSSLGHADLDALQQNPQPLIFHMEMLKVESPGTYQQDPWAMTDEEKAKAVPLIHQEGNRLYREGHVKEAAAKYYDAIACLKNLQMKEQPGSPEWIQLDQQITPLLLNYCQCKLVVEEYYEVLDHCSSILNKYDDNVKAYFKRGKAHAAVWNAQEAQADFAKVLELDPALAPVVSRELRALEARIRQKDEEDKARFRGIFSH

## Fc1ccc(-c2cn3cc(C(F)(F)F)cc(Cl)c3n2)cc1 [X15695]
[1]
  Inhibition of Proliferation: Yes
AHR-Hsp90-XAP2
  thermal stabilization of AHR (nano-DSF): bona fide AHR ligands
MCF-7 luc; [2]
  IC50: 2.45 nM
MCF-7 luc; [3]
  IC50: 7.96 nM
MCF-7 luc; Figure 1D, MCF-7 luc, absence of E2, 14 days
  IC50: 2.45 nM
MCF-7 luc; Figure 1E, MCF-7 luc + 10 nM E2, 14 days
  IC50: 7.96 nM
MCF-7 cells
  inhibition of colony expansion in the presence of AHR antagonist CH223191: clearly abrogated by the AHR antagonist CH223191
hERα
  transcription activity of ERα (reporter): reduced
ERα in MCF-7 cells
  ERα destabilization (immunoblot): most proficient in destabilizing ERα
ERα full-length
  displacement of the Fluormone tracer from ERα: did not

## Cc1cc(Cl)c2nc(-c3ccc(F)cc3)cn2c1 [X19724]
[1]
  Inhibition of Proliferation: Yes
AHR-Hsp90-XAP2
  thermal stabilization of AHR (nano-DSF): bona fide AHR ligands
MCF-7 luc; [2]
  IC50: 7.41 nM
MCF-7 luc; [3]
  IC50: 15.2 nM
MCF-7 cells
  inhibition of colony expansion in the presence of AHR antagonist CH223191: to a lesser extent
hERα
  transcription activity of ERα (reporter): reduced
ERα in MCF-7 cells
  ERα destabilization (immunoblot): most proficient in destabilizing ERα
ERα full-length
  displacement of the Fluormone tracer from ERα: did not

## Cc1cc(Cl)c2nc(-c3ccccc3)cn2c1 [X19728]
[1]
  Inhibition of Proliferation: Yes
AHR-Hsp90-XAP2
  thermal stabilization of AHR (nano-DSF): bona fide AHR ligands
MCF-7 luc; [3]
  IC50: 10.3 nM
MCF-7 cells
  inhibition of colony expansion in the presence of AHR antagonist CH223191: no effect on colony formation
hERα
  transcription activity of ERα (reporter): reduced
ERα in MCF-7 cells
  ERα destabilization (immunoblot): no significant ERα destabilization
ERα full-length
  displacement of the Fluormone tracer from ERα: did not
